Assay: Log P by HPLC on reversed phase columns (EEC directive 79/831 Annex V.A8)
Assay type: physicochemical
Method in brief: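 Values come from retention times calibrated against alkan-2-ones (3–16 carbons) by linear interpolation, using reversed-phase LC-UV per EEC directive 79/831 Annex V.A8. Acetonitrile gradient 10–95% with 0.1% formic acid [a], 0.001 M ammonium acetate [b] or 0.1% phosphoric acid [c]; several values within one method separated by "+".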

Compound | LogP (method marked [a]) | LogP (method [a])
C#CCOC(=O)C1(NC(=O)c2sc(Cl)c(Cl)c2C#N)CC1 [1.0785] | 2.65^[a] | –
NC(=O)C1(NC(=O)c2sc(Cl)c(Cl)c2Br)CC1 [1.0786] | 2.08^[a] | –
NC(=O)C1(NC(=O)c2sc(Br)c(Br)c2Cl)CC1 [1.0787] | 2.10^[a] | –
N#Cc1sc(C(=O)NC2(C(N)=O)CC2)c(Cl)c1Cl [1.0788] | 1.67^[a] | –
Cc1c(C(=O)NC2(C(N)=O)CC2)sc(C#N)c1Br [1.0789] | 1.61^[a] | –
CCOC(=O)CN(OC)C(=O)c1sc(Cl)c(Cl)c1Br [1.0790] | 3.71^[a] | –
COC(=O)C(CCSC)NC(=O)c1sc(C#N)c(Cl)c1Cl (centres unmarked) [1.0791] | – | 3.26^[a]
CCOC(=O)C(COC)NC(=O)c1sc(C#N)c(Br)c1C (centres unmarked) [1.0792] | – | 2.80^[a]
CCOC(=O)CNC(=O)c1sc(C)c(Cl)c1F [1.0793] | – | 2.54^[a]
CCOC(=O)C(CCSC)NC(=O)c1sc(Br)c(Br)c1C#N (centres unmarked) [1.0794] | – | 3.51^[a]
CCOC(=O)C1(NC(=O)c2sc(Br)c(Br)c2F)CSC1 [1.0795] | – | 3.59^[a]
N#Cc1sc(C(=O)NCC(N)=O)c(Cl)c1Cl [1.0796] | – | 1.48^[a]
CCOC(=O)CNC(=O)c1sc(Br)c(Br)c1C#N [1.0797] | – | 2.59^[a]
COC(=O)CNC(=O)c1sc(Br)c(Br)c1C#N [1.0798] | – | 2.24^[a]
CCOC(=O)C1(NC(=O)c2sc(Br)c(Br)c2C#N)CC1 [1.0799] | – | 2.73^[a]
COC(=O)C1(NC(=O)c2sc(Br)c(Br)c2C#N)CC1 [1.0800] | – | 2.40^[a]
COC(=O)C(C)(C)NC(=O)c1sc(Br)c(Br)c1C#N [1.0801] | – | 2.81^[a]
N#CCNC(=O)c1sc(Br)c(Br)c1C#N [1.0802] | – | 2.11^[a]
CCOC(=O)C(CO)NC(=O)c1sc(Br)c(Br)c1C#N (centres unmarked) [1.0803] | – | 2.29^[a]
CCOC(=O)CN(OC)C(=O)c1sc(Br)c(Br)c1Cl [1.0804] | – | 3.67^[a]
CCOC(=O)C(NC(=O)c1sc(Br)c(Br)c1C#N)C(=O)OCC [1.0805] | – | 3.39^[a]
COC(=O)C1(NC(=O)c2sc(Br)c(Br)c2C#N)CCC1 [1.0806] | – | 2.87^[a]
N#Cc1c(C(=O)NC2(C(N)=O)CC2)sc(Cl)c1Cl [1.0807] | – | 1.71^[a]
CCOC(=O)C(CO)NC(=O)c1sc(C#N)c(Cl)c1Cl (centres unmarked) [1.0809] | – | 2.33^[a]
CCOC(=O)C(CO)NC(=O)c1sc(Cl)c(Cl)c1C#N (centres unmarked) [1.0810] | – | 2.23^[a]

Compound | LogP (method marked [a]) | LogP (method [a])
CCOC(=O)C(CCSC)NC(=O)c1sc(Br)c(Br)c1F (centres unmarked) [1.0812] | – | 4.05^[a]
CCOC(=O)C(CCSC)NC(=O)c1sc(C#N)c(Cl)c1Cl (centres unmarked) [1.0813] | – | 3.60^[a]
CCOC(=O)C(CCSC)NC(=O)c1sc(Cl)c(Cl)c1C#N (centres unmarked) [1.0814] | – | 3.46^[a]
CCOC(=O)C1(NC(=O)c2sc(Br)c(Br)c2C#N)CCC1 [1.0815] | – | 3.23^[a]
CCOC(=O)[C@H](CO)NC(=O)c1sc(Cl)c(Cl)c1Br [1.0816] | – | 2.84^[a]
CCOC(=O)[C@H](CO)NC(=O)c1sc(Br)c(Br)c1Cl [1.0817] | – | 2.84^[a]
CCOC(=O)C(C)NC(=O)c1sc(C#N)c(Br)c1C (centres unmarked) [1.0823] | – | 2.80^[a]
CCOC(=O)C(C)NC(=O)c1sc(Br)c(Br)c1Cl (centres unmarked) [1.0824] | – | 4.01^[a]
COC(=O)CNC(=O)c1sc(I)c(Cl)c1Cl [1.0826] | – | 2.82^[a]
CCOC(=O)CNC(=O)c1sc(I)c(Cl)c1Cl [1.0827] | – | 3.24^[a]
COC(=O)C1(NC(=O)c2sc(I)c(Cl)c2Cl)CC1 [1.0828] | – | 3.01^[a]
CCOC(=O)[C@H](CO)NC(=O)c1sc(Cl)c(Cl)c1C#N [1.0830] | – | 2.22^[a]
CCOC(=O)[C@H](CO)NC(=O)c1sc(C#N)c(Cl)c1Cl [1.0831] | – | 2.26^[a]
CCOC(=O)[C@H](CO)NC(=O)c1sc(Br)c(Br)c1F [1.0832] | – | 2.54^[a]
CCOC(=O)[C@H](CO)NC(=O)c1sc(C#N)c(Cl)c1C [1.0833] | – | 2.07^[a]
CCOC(=O)C(CO)NC(=O)c1sc(C#N)c(Br)c1C (centres unmarked) [1.0834] | – | 2.16^[a]
CCOC(=O)C(CO)NC(=O)c1sc(C#N)c(Cl)c1C (centres unmarked) [1.0835] | – | 2.12^[a]
COC(=O)C(CCSC)NC(=O)c1sc(C#N)c(Cl)c1C (centres unmarked) [1.0836] | – | 3.03^[a]
N#CCNC(=O)c1sc(Br)c(Cl)c1Br [1.0837] | – | 2.75^[a]
CCOC(=O)C(CCSC)NC(=O)c1sc(Br)c(Cl)c1Br (centres unmarked) [1.0838] | – | 4.55^[a]
COC(=O)C(C)(C)NC(=O)c1sc(Br)c(Cl)c1Br [1.0840] | – | 3.81^[a]
CCOC(=O)[C@H](CO)NC(=O)c1sc(Br)c(Cl)c1C [1.0841] | – | 2.59^[a]
CCOC(=O)[C@H](CO)NC(=O)c1sc(Cl)c(Br)c1C [1.0842] | – | 2.62^[a]
CCOC(=O)[C@H](CO)NC(=O)c1sc(Br)c(Br)c1C [1.0843] | – | 2.64^[a]
CCOC(=O)C(CO)NC(=O)c1sc(Br)c(Cl)c1C (centres unmarked) [1.0844] | – | 2.60^[a]
